Measured values taken from ChEMBL document CHEMBL4627246, “Pyroglutamide-Based P2X7 Receptor Antagonists Targeting Inflammatory Bowel Disease” (J Med Chem, 2020).

Assays:
Assay type in all cases: cell-based
[1] = tested on: RXF 393; experiment: Cytotoxicity against human RXF393 cells assessed as effect on cell growth at 10 uM incubated for 48 hrs by sulforhodamine B assay; conditions: rxf 393, 48 h
[2] = tested on: NCI-H460; experiment: Cytotoxicity against human NCI-H460 cells assessed as effect on cell growth at 10 uM incubated for 48 hrs by sulforhodamine B assay; conditions: nci-h460, 48 h
[3] = tested on: NCI-H322M; experiment: Cytotoxicity against human NCI-H322M cells assessed as effect on cell growth at 10 uM incubated for 48 hrs by sulforhodamine B assay
[4] = tested on: OVCAR-8; experiment: Cytotoxicity against human OVCAR8 cells assessed as effect on cell growth at 10 uM incubated for 48 hrs by sulforhodamine B assay; conditions: ovcar-8, 48 h
[5] = tested on: SK-MEL-28; experiment: Cytotoxicity against human SK-MEL-28 cells assessed as effect on cell growth at 10 uM incubated for 48 hrs by sulforhodamine B assay; conditions: sk-mel-28, 48 h
[6] = tested on: MDA-MB-231; experiment: Cytotoxicity against human MDA-MB-231 cells assessed as effect on cell growth at 10 uM incubated for 48 hrs by sulforhodamine B assay; conditions: mda-mb-231, 48 h
[7] = tested on: SW-620; experiment: Cytotoxicity against human SW620 cells assessed as effect on cell growth at 10 uM incubated for 48 hrs by sulforhodamine B assay; conditions: sw-620, 48 h
[8] = tested on: MCF7; experiment: Cytotoxicity against human MCF7 cells assessed as effect on cell growth at 10 uM incubated for 48 hrs by sulforhodamine B assay; conditions: mcf7, 48 h
[9] = tested on: OVCAR-5; experiment: Cytotoxicity against human OVCAR5 cells assessed as effect on cell growth at 10 uM incubated for 48 hrs by sulforhodamine B assay; conditions: ovcar-5, 48 h
[10] = tested on: SK-OV-3; experiment: Cytotoxicity against human SKOV3 cells assessed as effect on cell growth at 10 uM incubated for 48 hrs by sulforhodamine B assay; conditions: sk-ov-3, 48 h
[11] = tested on: OVCAR-4; experiment: Cytotoxicity against human OVCAR4 cells assessed as effect on cell growth at 10 uM incubated for 48 hrs by sulforhodamine B assay; conditions: ovcar-4, 48 h
[12] = tested on: K562; experiment: Cytotoxicity against human K562 cells assessed as effect on cell growth at 10 uM incubated for 48 hrs by sulforhodamine B assay; conditions: k562, 48 h
[13] = tested on: ACHN; experiment: Cytotoxicity against human ACHN cells assessed as effect on cell growth at 10 uM incubated for 48 hrs by sulforhodamine B assay
[14] = tested on: EKVX; experiment: Cytotoxicity against human EKVX cells assessed as effect on cell growth at 10 uM incubated for 48 hrs by sulforhodamine B assay
[15] = tested on: 786-0; experiment: Cytotoxicity against human 786-0 cells assessed as effect on cell growth at 10 uM incubated for 48 hrs by sulforhodamine B assay; conditions: 786-0, 48 h
[16] = tested on: TK-10; experiment: Cytotoxicity against human TK10 cells assessed as effect on cell growth at 10 uM incubated for 48 hrs by sulforhodamine B assay; conditions: tk-10, 48 h
[17] = tested on: DU-145; experiment: Cytotoxicity against human DU145 cells assessed as effect on cell growth at 10 uM incubated for 48 hrs by sulforhodamine B assay; conditions: du-145, 48 h
[18] = tested on: A498; experiment: Cytotoxicity against human A498 cells assessed as effect on cell growth at 10 uM incubated for 48 hrs by sulforhodamine B assay; conditions: a498, 48 h
[19] = tested on: Malme-3M; experiment: Cytotoxicity against human MALME-3M cells assessed as effect on cell growth at 10 uM incubated for 48 hrs by sulforhodamine B assay
[20] = tested on: COLO 205; experiment: Cytotoxicity against human COLO205 cells assessed as effect on cell growth at 10 uM incubated for 48 hrs by sulforhodamine B assay; conditions: colo 205, 48 h

Measured: Activity

CN(C)/C=C1\C[C@H]2C(=O)N(Cc3ccc(Cl)cc3Cl)C(N(C)C)N2C1=O (stereo not given in full)
Non-Toxic: all assays above

COc1ccc(N2C(=O)[C@@H]3C/C(=C\N(C)C)C(=O)N3C2N(C)C)cc1 (stereo not given in full)
Non-Toxic: all assays above

O=C(NCc1ccccc1)[C@@H]1CCC(=O)N1Cc1ccc(Cl)cc1Cl
Non-Toxic: all assays above

O=C1N[C@H](C(=O)NCc2ccc(Cl)cc2Cl)C/C1=N\O (stereo in doubt)
Non-Toxic: all assays above

CCCCCCN1C(=O)[C@@H]2CCC(=O)N2C1N(C)C (stereo not given in full)
Non-Toxic: all assays above

N#Cc1ccc(N2C(=O)CC[C@H]2C(=O)NCc2ccc(Cl)cc2Cl)cc1
Non-Toxic: all assays above

CN1C(=O)CC[C@H]1C(=O)NCc1cccc(C(F)(F)F)c1Cl [GSK1482160]
Non-Toxic: all assays above

COc1ccc(CN2C(=O)CC[C@H]2C(=O)NCCc2ccccc2)cc1
Non-Toxic: all assays above

O=C(NCC1CCCCC1)[C@@H]1CCC(=O)N1c1ccccc1
Non-Toxic: all assays above

CN(C)C(=O)[C@@H]1CCC(=O)N1
Non-Toxic: all assays above

O=C(NCc1ccc(Cl)cc1Cl)[C@@H]1CCC(=O)N1C(c1ccccc1)c1ccccc1
Non-Toxic: all assays above

O=C(NCc1ccccc1Cl)[C@@H]1CCC(=O)N1Cc1ccccc1
Non-Toxic: all assays above

O=C1N[C@H](C(=O)NCc2ccc(Cl)cc2Cl)C/C1=C\N1CCOCC1
Non-Toxic: all assays above

CN(C)/C=C1\C[C@H]2C(=O)N(Cc3ccccc3Cl)C(N(C)C)N2C1=O (stereo not given in full)
Non-Toxic: all assays above
